In BindingDB's records for doi:10.7270/Q2TX3CTT (Broad Institute, 2010) one finds EC50 data, which are given here for 68 compounds.

Bounds are passed on as bounds.

Glycogen synthase kinase-3 beta, sequence (P49841 whole entry): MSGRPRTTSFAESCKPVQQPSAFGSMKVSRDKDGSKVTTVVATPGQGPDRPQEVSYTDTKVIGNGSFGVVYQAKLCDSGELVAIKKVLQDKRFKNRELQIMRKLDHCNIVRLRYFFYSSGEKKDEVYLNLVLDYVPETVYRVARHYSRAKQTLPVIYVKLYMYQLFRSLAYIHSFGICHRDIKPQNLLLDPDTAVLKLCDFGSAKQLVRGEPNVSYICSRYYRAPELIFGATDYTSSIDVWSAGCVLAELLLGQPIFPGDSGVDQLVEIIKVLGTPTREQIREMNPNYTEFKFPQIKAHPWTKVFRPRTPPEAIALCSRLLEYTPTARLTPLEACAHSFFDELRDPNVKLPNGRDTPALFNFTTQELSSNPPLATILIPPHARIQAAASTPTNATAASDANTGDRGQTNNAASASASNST

This assay concerns the target Glycogen synthase kinase-3 beta (Homo sapiens, UniProt P49841). The assay can be described thus: GSK3beta kinase inhibitor potency, dose response, biochemical, luminescence, cell-free homogeneous, retest (AID 434954).
Broadly, the EC50 is the concentration at which the effect is half-maximal. For `CCOc1cccc(C(=O)Nc2cccc(-c3nc4ncccc4o3)c2C)c1` [3-ethoxy-N-[2-methyl-3-([1,3]oxazolo[4,5-b]pyridin-2-yl)phenyl]benzamide], the EC50 was greater than 300 µM.
`Cc1c(Cl)cccc1Nc1ccccc1C(=O)O` displayed an EC50 greater than 300 µM.
Compound `c1cncc(-c2nc(NCc3ccc4c(c3)OCO4)c3ccccc3n2)c1` [N-(1,3-benzodioxol-5-ylmethyl)-2-(3-pyridinyl)-4-quinazolinamine] yielded an EC50 greater than 300 µM.
In turn, `CC(Cc1c[nH]c2ccccc12)NC(=O)OCCCl` (stereo not drawn) displayed an EC50 greater than 300 µM.
`COc1cc(NC(=O)COC(=O)CCc2cc(OC)c(OC)c(OC)c2)cc(OC)c1` [SMR000349752] yielded a 50% effective concentration (EC50) greater than 300 µM.
Take `Cc1nc(Nc2ccc(S(N)(=O)=O)cc2)sc1C(=O)Nc1ccccc1` [4-methyl-N-phenyl-2-(4-sulfamoylanilino)-5-thiazolecarboxamide]: the EC50 was greater than 300 µM.
The compound `CN(C)Cc1c(O)ccc2c(-c3ccccc3)cc(=O)oc12` [SMR000277276] registered an EC50 greater than 300 µM.
Take `CN1CCc2c(sc3c2c(=O)n(-c2ccccc2)c2nncn32)C1` [SMR000045494]: the EC50 was greater than 300 µM.
With `CCOC(=O)c1nnn(-c2nonc2N)c1-c1ccc(C)cc1` [ethyl 1-(4-amino-1,2,5-oxadiazol-3-yl)-5-(4-methylphenyl)triazole-4-carboxylate], the concentration giving a half-maximal response (EC50) was 51 µM.
In the case of `NC1=N/C(=N\c2ccccc2)c2ccccc21` [MLS000057025], the EC50 is greater than 300 µM.
In turn, `O=NCc1ccc(N2CCCC2)c([N+](=O)[O-])c1` gave an EC50 of 5.66 µM.
Consider `O=C(Nc1ccccc1)Nc1ccccn1` [1-phenyl-3-pyridin-2-ylurea], for which the EC50 was greater than 300 µM.
`O=C(OCCCCOC(=O)c1ccccc1)c1ccccc1` [SMR000459786] yielded an EC50 greater than 300 µM.
`COC(=O)C(C)Sc1ccc2nnc(-c3ccc(F)cc3)n2n1` (stereo not drawn) [MLS000093331] yielded an EC50 of 11.9 µM.
As for `COC(=O)c1nnn(-c2nonc2N)c1CN1CCc2ccccc21` [1-(4-amino-1,2,5-oxadiazol-3-yl)-5-(2,3-dihydroindol-1-ylmethyl)-4-triazolecarboxylic acid methyl ester], the EC50 turned out to be 6.97 µM.
Compound `CCN(CC)C(=O)Cn1cc(C(=O)C(=O)Nc2ccc3c(c2)OCCO3)c2ccccc21` showed an EC50 greater than 300 µM.
The compound `Cc1oc2c(CN(C)C)c(O)ccc2c(=O)c1-c1cscn1` returned an EC50 greater than 300 µM.
With `Nc1c(C(=O)c2ccccc2)sc(Nc2ccccc2)c1S(=O)(=O)c1ccccc1` [SMR000115215] the figure was greater than 300 µM; with `Cc1ccc(CN=Nc2ncnc3nc[nH]c23)cc1` [MLS000419179], 30.1 µM.
With `O=c1cc(NCc2ccccc2)nc2n1CCCS2` [MLS000027636] the figure was greater than 300 µM.
`CCCCCCSc1ccc([C@H]2N[C@@](CC(C)C)(C(=O)OC)[C@H]3C(=O)N(C)C(=O)[C@@H]23)cc1` [SMR000814394] came in with an EC50 greater than 300 µM.
With `COc1ccc(C2C3=C(CC(C)(C)CC3=O)N=C(C)C2C#N)cc1` (stereo not drawn) [4-(4-methoxyphenyl)-2,7,7-trimethyl-5-oxidanylidene-1,4,6,8-tetrahydroquinoline-3-carbonitrile] the figure was greater than 300 µM; with `O=C1Nc2cc(C(=O)NCCCN3CCOCC3)ccc2S/C1=C/c1ccccc1F` [(2E)-2-[(2-fluorophenyl)methylidene]-N-(3-morpholin-4-ylpropyl)-3-oxo-4H-1,4-benzothiazine-6-carboxamide], 18.2 µM.
Compound `COCCNc1nc(N)c([N+](=O)[O-])c(NCCO)n1` [2-[[6-azanyl-2-(2-methoxyethylamino)-5-nitro-pyrimidin-4-yl]amino]ethanol] returned an EC50 of 28.5 µM.
Compound `Cc1ccnc(NC(=O)c2cccc([N+](=O)[O-])c2C)c1` [2-methyl-N-(4-methylpyridin-2-yl)-3-nitro-benzamide] registered a half-maximal effective concentration (EC50) greater than 300 µM.
For the compound `CN(C)c1nc(-c2cccnc2)nc(-c2ccccc2)c1C#N` [SMR000549421], the EC50 was greater than 300 µM.
Regarding `CC(C)(C)NC(=O)NC(=O)COc1ccc(Br)cc1Br` [SMR000254856], the EC50 was greater than 300 µM.
Regarding `CCNC(=S)Nc1ccc2cn[nH]c2c1` [SMR000261305], the EC50 was greater than 300 µM.
In the case of `COC(=O)c1ccc(CSc2nnc(-c3ccncc3)o2)o1` [methyl 5-({[5-(4-pyridinyl)-1,3,4-oxadiazol-2-yl]thio}methyl)-2-furoate], a half-maximal response (EC50) required 12.5 µM.
Turning to `COc1cccc2c1cc1c(=O)n(CC(=O)N3CCC(C)CC3)nc(C)n12`, the concentration giving a half-maximal response (EC50) is greater than 300 µM.
With `CC(NCC1COc2ccccc2O1)C1COc2ccccc2O1` (stereo not drawn) the figure was greater than 300 µM.
`O=C(NNC(=O)C1[C@H]2CCCC[C@@H]12)c1ccc(=O)oc1` (stereo partly drawn) [MLS000768334] showed an EC50 greater than 300 µM.
In turn, `CN(C)c1ccc(-c2nc3ccccc3n2C)cc1` [MLS000089904] had an EC50 greater than 300 µM.
`COc1cccc(C2Nc3ccccc3N=C3CC(C)(C)CC(=O)C32)c1` (stereo not drawn) [MLS001207292] yielded an EC50 greater than 300 µM.
The compound `NNc1nccc(Nc2ccccc2C(=O)O)n1` [2-[(2-hydrazinyl-4-pyrimidinyl)amino]benzoic acid] returned an EC50 of 2.92 µM.
`CC1=C(C(=O)Nc2ccccc2F)C(c2cccs2)C2C(=O)CCCC2=N1` (stereo not drawn) showed an EC50 greater than 300 µM.
`O=C1Nc2cc(C(=O)NCC3CCCO3)ccc2S/C1=C/c1ccccc1F` (stereo not drawn) registered an EC50 greater than 300 µM.
In turn, `COC(=O)c1nnn(-c2nonc2N)c1CSc1ccc(Cl)cc1` gave an EC50 of 15.9 µM.
`c1ccc(OCCCn2nnc(-c3ccncc3)n2)cc1` [SMR000008082] returned an EC50 of 20.3 µM.
Take `NC(=O)c1c(NC(=O)c2ccncc2)sc2c1CCCC2`: the EC50 was greater than 300 µM.
`Nc1nc(NCC(=O)O)nc(NC2CCCCC2)c1[N+](=O)[O-]` [2-[[4-azanyl-6-(cyclohexylamino)-5-nitro-pyrimidin-2-yl]amino]ethanoic acid]: the EC50 was greater than 300 µM.
In turn, `CC(C)N1CCc2c(sc(NC(=O)CCc3ccccc3)c2C(N)=O)C1` [MLS000419104] displayed a concentration for a half-maximal effect (EC50) greater than 300 µM.
As for `Cc1ccc(C)c(S(=O)(=O)NCc2ccc(C(=O)N3CC(C)OC(C)C3)cc2)c1` (stereo not drawn) [N-[[4-(2,6-dimethylmorpholin-4-yl)carbonylphenyl]methyl]-2,5-dimethyl-benzenesulfonamide], the EC50 is greater than 300 µM.
Compound `N#Cc1c(N2CCCCC2)nc(N2CCCCC2)c2c1CCN(Cc1ccccc1)C2` [SMR000036037] yielded an EC50 of 3.3 µM.
Then `Cc1cccc(/C=C2/Sc3ccc(C(=O)NCCN4CCCC4)cc3NC2=O)c1` [(2E)-2-[(3-methylphenyl)methylidene]-3-oxidanylidene-N-(2-pyrrolidin-1-ylethyl)-4H-1,4-benzothiazine-6-carboxamide], with 6.28 µM; and `CCCCOC(=O)c1ccc(O)cc1` [butyl 4-hydroxybenzoate], with greater than 300 µM.
With `Cc1cccc(Nc2nc(N)c([N+](=O)[O-])c(NCCO)n2)c1` [2-(6-Amino-5-nitro-2-m-tolylamino-pyrimidin-4-ylamino)-ethanol] the figure was 5.91 µM.
For the compound `CN1CCN(CCC2Oc3cc([N+](=O)[O-])ccc3NC2=O)CC1` (stereo not drawn) [SMR000336558], the EC50 was greater than 300 µM.
Compound `CC1=C(C#N)C(=O)NC(=O)C1=NNc1ccc(Cl)c(C(=O)O)c1` [MLS001213189] came in with a half-maximal effective concentration (EC50) of 39.8 µM.
With `COc1ccc(N2CC(C(=O)Nc3cc(C)ccn3)CC2=O)cc1` (stereo not drawn) [1-(4-methoxyphenyl)-N-(4-methylpyridin-2-yl)-5-oxopyrrolidine-3-carboxamide] the figure was 46.6 µM; with `COc1cccc2cc(C(=O)CS(=O)(=O)c3ccc(C)cc3)c(=O)oc12` [8-methoxy-3-[2-(4-methylphenyl)sulfonylethanoyl]chromen-2-one], greater than 300 µM.
Then `Nc1nonc1-n1nnc(C(=O)NN=Cc2ccccn2)c1CNc1ccccc1` [1-(4-amino-1,2,5-oxadiazol-3-yl)-5-(anilinomethyl)-N-(2-pyridinylmethylideneamino)-4-triazolecarboxamide], with greater than 300 µM.
Compound `Cc1ccc(C=NNC(=O)COc2ccc(C)cc2[N+](=O)[O-])cc1` [2-(4-methyl-2-nitrophenoxy)-N'-[(1Z)-(4-methylphenyl)methylene]acetohydrazide] gave an EC50 greater than 300 µM.
Then `CCOC(=O)COn1c(=O)c(-c2cccs2)[n+]([O-])c2ccccc21`, with greater than 300 µM; and `CCN1C(=O)N[C@@H](c2ccccc2)[C@@H](C(=O)OC)[C@H]1C` [CMLD004197], with greater than 300 µM.
As for `CCCN(CCC)Cc1c(C(=O)NN=Cc2ccsc2)nnn1-c1nonc1N` [SMR000620321], a half-maximal response (EC50) required 4.13 µM.
Regarding `COc1ccc(C2c3c(n[nH]c3C)N=C3CCCC(=O)C32)cc1OC` (stereo not drawn) [SMR000353889], the EC50 was greater than 300 µM.
For `COC(=O)c1nnn(-c2nonc2N)c1CSc1ccccn1` [1-(4-amino-1,2,5-oxadiazol-3-yl)-5-[(2-pyridinylthio)methyl]-4-triazolecarboxylic acid methyl ester], the EC50 worked out at 21.1 µM.
Take `Cc1cccc(Nc2nc(N3CCN(C)CC3)nc(N)c2[N+](=O)[O-])c1` [N4-(3-methylphenyl)-2-(4-methylpiperazin-1-yl)-5-nitro-pyrimidine-4,6-diamine]: the EC50 was greater than 300 µM.
The compound `c1c2c(cc3sc(N4CCOCC4)nc13)OCCO2` [2-(4-morpholinyl)-6,7-dihydro-[1,4]dioxino[2,3-f][1,3]benzothiazole] gave an EC50 greater than 300 µM.
The compound `O=C(Nc1ccccc1)ON=C1c2ccccc2-c2ccccc21` [9H-fluoren-9-one O-(anilinocarbonyl)oxime] had an EC50 greater than 300 µM.
Take `CC(=O)Nc1ccc(S(=O)(=O)Nc2ccc3c(c2)OCCO3)cc1Cl` [MLS000850184]: the EC50 is greater than 300 µM.
In turn, `COc1cc(SC)ccc1C(=O)OCC(=O)NCCNC(=O)COC(=O)c1ccc(SC)cc1OC` [MLS001129814] returned an EC50 greater than 300 µM.
`COC(=O)CSc1ccc2nnc(-c3ccc(OC)c(OC)c3)n2n1` had an EC50 greater than 300 µM.
Regarding `COc1ccc(-c2nn(-c3ccccc3)cc2C=NN=C(N)N)cc1OC` [SMR000261891], the EC50 was greater than 300 µM.
Take `CC(=O)N1CCc2c(sc(NC(=O)CS(=O)(=O)c3ccc(F)cc3)c2C(N)=O)C1` [SMR000808580]: the EC50 is greater than 300 µM.
As for `Cc1[nH]nc2c1C(c1cccc(O)c1)C1C(=O)CC(C)(C)CC1=N2` (stereo not drawn) [MLS000081979], the EC50 is 0.421 µM.
Regarding `CCOC(=O)c1cnc2ccc(OC)cc2c1Nc1ccc2c(c1)OCCO2` [SMR000196288], the EC50 turned out to be 16.7 µM.
